Results as given in US20250257034A1, “INDOLE DERIVATIVES AS SEROTONERGIC AGENTS USEFUL FOR THE TREATMENT OF DISORDERS RELATED THERETO” (priority 2023, published 2025).
Read-outs that look alike come from different tables or passages of the source.

Target: human 5-HT2A receptor (Homo sapiens, UniProt P28223)
Test: Human 5-HT2A functional FLIPR assay (agonist mode)
Format: cell-based
Parameters: expressed in transfected cells; host or cells: HTR2A&Gα15-HEK293 (tetracycline induction)
Protocol: The potential excitatory effects of compounds targeting on human 5-hydroxytryptamine receptor 2A (5-HT2A) under agonist mode was assessed.
HTR2A&Gα15-HEK293 cells were cultured in DMEM medium containing 10% dialyzed FBS and 1×penicillin-streptomycin, 100 μg/mL Hygromycin B and 300 μg/mL G418. The cells were passaged about three times a week, maintained between ˜30% to ˜90% confluence.
1. The cell culture medium (DMEM medium containing 10% dialyzed FBS and 1×penicillin-streptomycin, 100 μg/mL Hygromycin B and 300 μg/mL G418), TrypLE™ Express and DPBS to R.T. was warmed in advance.
2. For induction, 1 μg/ml tetracycline (final concentration) was added to cell culture medium and incubated for 48 hours prior to seeding cells into plate at 37° C., 5% (v/v) C02. The cell culture medium was removed from flask. Cells were washed with DPBS.
3. 2 mL TrypLE™ Express was added to the flask, mixed well by gentle shaking and cells were incubated at 37° C. for a few minutes.
4. The cells were checked for morphological change under microscope, the digestion was stopped by adding 4 mL cell culture medium to the flask when most of cells turned to round.
5. The cell suspension was transferred into a 15 mL centrifuge tube, and then centrifuged at 1,200 rpm for 5 minutes.
6. The supernatant was removed. The cell pellet was resuspended with 2 mL cell culture medium.
7. The cell density was counted using cell counter.
9. 30 μL/well cell suspensions added into a 384-well cell plate (The cell density was 20,000 cells/well).
10. The cell plate was incubated overnight at 37° C., 5% (v/v) CO2.
On the day of experiments, culture medium was removed from the cell plate.
10 μL of assay buffer (20 mM HEPES, in 1x HBSS, pH 7.4) was added to each well of the cell plate.
2×dye solution was prepared following the manual of the F LIP R® Calcium 6 Assay Kit: • i. The dye was diluted with assay buffer. • ii. Probenecid was added to the final concentration of 5 mM. • iii. Vortexed vigorously for I-2 minutes.
4. 10 μL of 2x dye solution was added to each well of the cell plate.
5. The cell plate was placed on plate shaker, followed by shaking at 600 rpm for 2 minutes.
6. The plate was incubated at 37° C. for 2 hours followed by an additional 15-minute incubation at 25° C.
1. Serotonin HCl was prepared to the concentration of 10 mM with DMSO.
2. The test compounds were prepared to the concentration of 10 mM with DMSO.
3. The compounds were added to a 384-well compound source plate.
4. 3-folds serial dilutions were performed with DMSO.
5. 90 nL/well of serial diluted compounds was transferred from source plate to a 384-well compound plate by using an Echo.
6. 30 μL/well of assay buffer (20 mM HEPES in 1x HBSS, pH 7.4) was added to the compound plate.
7. The plate was mixed on-plate shaker for 2 minutes.
1. After the cells were incubated with dye solution, the cell plate, compound plate containing 3×compounds and F LIP R tips were placed into F LIP R.
2. 10 μL of 3×compounds transferred from the compound plate to the cell plate by FLIP R.
3. The plate was read for 160 sec with 1 sec interval and the data of agonist mode was obtained.
1. The normalized fluorescence reading (RFU) was calculated as shown below, wherein F max and F min stand for maximum and minimum of calcium signal during defined time window:
2. EC50 by fitting R F U against log of compound concentrations with Hill equation was calculated using XLfit.
The potential excitatory effects of compounds targeting human 5-hydroxytryptamine receptor 2A (5-HT2A) under agonist mode was assessed.
2. For induction, 1 μg/ml tetracycline (final concentration) was added to cell culture medium and incubated for 48 hours prior to seeding cells into plate at 37° C., 5% (v/v) CO2. The cell culture medium was removed from flask. Cells were washed with DPBS.
1. On the day of experiments, culture medium was removed from the cell plate.
2. 10 μL of assay buffer (20 mM HEPES, in 1×HBSS, pH 7.4) was added to each well of the cell plate.

[1] = FLIPR calcium, agonist mode, HTR2A&Gα15-HEK293 cells (Table 39), read-out: h5-HT2A, EC50

human 5-HT2A receptor, sequence (P28223 whole entry): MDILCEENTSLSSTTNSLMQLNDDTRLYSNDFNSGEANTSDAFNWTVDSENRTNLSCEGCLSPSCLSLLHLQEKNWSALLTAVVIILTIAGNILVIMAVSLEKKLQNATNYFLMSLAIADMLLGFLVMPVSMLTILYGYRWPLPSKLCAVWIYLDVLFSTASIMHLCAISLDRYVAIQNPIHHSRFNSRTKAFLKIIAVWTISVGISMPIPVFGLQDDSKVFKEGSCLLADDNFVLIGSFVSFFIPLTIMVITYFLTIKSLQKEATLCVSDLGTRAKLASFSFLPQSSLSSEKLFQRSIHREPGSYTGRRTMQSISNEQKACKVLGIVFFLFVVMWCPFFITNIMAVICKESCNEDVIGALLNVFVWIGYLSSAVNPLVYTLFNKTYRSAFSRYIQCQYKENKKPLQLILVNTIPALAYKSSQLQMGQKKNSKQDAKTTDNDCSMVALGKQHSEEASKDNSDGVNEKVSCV

SMILES	EC50 [µM]	RFU@10 μM (RFU=Fmax−Fmin (Table 9))	RFU@10 μM (RFU=Fmax−Fmin (Table 39))	EC50 [1] [µM]	EC50 (FLIPR calcium, agonist mode, HTR2A&Gα15-HEK293 cells (Table 9), read-out: h5-HT2A, EC50) [µM]
CCN(CC)CCc1c[nH]c2ccc(SC)cc12 [Compound I-12, N,N-Diethyl-2-(5-(methylthio)-1H-indol-3-yl)ethan-1-amine]	0.077	1,041 RFU	–	–	–
COc1ccc2[nH]cc(CCN3CC[C@@H](OC(F)F)C3)c2c1 [(R) I-67, (R)-3-(2-(3-(Difluoromethoxy)pyrrolidin-1-yl)ethyl)-5-methoxy-1H-indole]	–	–	225 RFU	–	–
COc1ccc2[nH]cc(CCN(C)CCOC(F)F)c2c1 [Compound I-71, 2-(Difluoromethoxy)-N-(2-(5-methoxy-1H-indol-3-yl)ethyl)-N-methylethan-1-amine]	–	–	1,094 RFU	0.257	–
CSc1ccc2[nH]cc(CCN(C(C)C)C(C)C)c2c1 [Compound I-17, N-Isopropyl-N-(2-(5-(methylthio)-1H-indol-3-yl)ethyl)propan-2-amine]	0.037	8,546 RFU	–	–	–
CN(C)CCc1c[nH]c2ccccc12 [DMT]	–	3,493 RFU	3,493 RFU	0.163	0.163
COc1ccc2[nH]cc(CCN3CC[C@H](OC(F)F)C3)c2c1 [(S) I-67, (S)-3-(2-(3-(Difluoromethoxy)pyrrolidin-1-yl)ethyl)-5-methoxy-1H-indole]	0.994	–	2,147 RFU	–	–
CCN(C)CCc1c[nH]c2ccc(SC)cc12 [Compound I-13, N-Ethyl-N-methyl-2-(5-(methylthio)-1H-indol-3-yl)ethan-1-amine]	0.018	726 RFU	–	–	–
CSc1ccc2[nH]cc(CCN(C)C(C)C)c2c1 [Compound I-19, N-Methyl-N-(2-(5-(methylthio)-1H-indol-3-yl)ethyl)propan-2-amine]	0.033	819 RFU	–	–	–
CN(C)CCc1c[nH]c2ccc(OCCOC(F)F)cc12 [Compound I-128, 2-(5-(2-(Difluoromethoxy)ethoxy)-1H-indol-3-yl)-N,N-dimethylethan-1-amine]	1.21	–	2,159 RFU	–	–
COc1ccc2[nH]cc(CCN3CC[C@@H](OC)C3)c2c1 [(R) I-66, (R)-5-methoxy-3-(2-(3-methoxypyrrolidin-1-yl)ethyl)-1H-indole]	–	–	752 RFU	–	–
CN(CCOC(F)F)CCc1c[nH]c2ccccc12 [Compound I-130, N-(2-(1H-Indol-3-yl)ethyl)-2-(difluoromethoxy)-N-methylethan-1-amine]	–	–	247 RFU	–	–
[2H]C([2H])([2H])N(CCc1c[nH]c2ccc(SC)cc12)C([2H])([2H])[2H] [Compound I-1, N,N-Bis(methyl-d3)-2-(5-(methylthio)-1H-indol-3-yl)ethan-1-amine]	0.045	7,177 RFU	–	–	–
